The values that follow come from patent US9089136B2, “Pyrimidine compound and use thereof for pest control” (Sumitomo Chemical Company, Limited, priority 2010, dated 2015).

The test system of one assay is Aphis gossypii. In words: Test Example 1: spray test against Aphis gossypii on cucumber seedling. Type of assay: in vivo. The settings on record: 144 h, 500 ppm active ingredient, formulation of Formulation Example 5 diluted with water, 20 ml sprayed on cucumber seedling, six days after spraying. The method, then: On the other hand, about 30 Aphis gossypii were incubated on a cucumber seeding (the first true leaf stage) planted in a plastic cup, and leaving it for a day. 20 ml of each of the above test spray solutions was sprayed on this seeding. Six days after spraying, the number of the surviving Aphis gossypii parasitized on the leaves of the cucumber was examined, and a control value was calculated according to the following equation: Control value(%)={1−(Cb×Tai)/(Cai×Tb))×100 wherein symbols represent as follows: Cb: the number of insects in a non-treated section before treatment, Cai: the number of insects in a non-treated section in observation, Tb: the number of insects in a treated-section before treatment, Tai: the number of insects in a treated-section in observation.

Another assay has as its system Bemisia tabaci. As to the kind of experiment: Test Example 2: spray test against Bemisia tabaci instar larvae on tomato seedling. Type of assay: in vivo. The settings on record: 168 h, 500 ppm active ingredient, formulation of Formulation Example 5 diluted with water, 10 ml/cup sprayed on tomato seedling, greenhouse at 25° C., after 7 days. The method, then: On the other hand, Bemisia tabaci adult was released on a tomato seeding (the third true leaf stage) planted in a polyethylene cup, and made to lay eggs for about 24 hours. The tomato seedling was kept in a greenhouse for 8 days. When instar larvae hatched from the eggs, the above test spray solution was sprayed in the amount of 10 ml/cup. The cup was kept in a greenhouse at 25° C. After the keeping for 7 days, the number of surviving instar larvae on the tomato leaves was examined, and a control value was calculated according to the following equation: Control value(%)={1−(Cb×Tai)/(Cai×Tb))×100 wherein symbols represent as follows: Cb: the number of pests in a non-treated section before treatment, Cai: the number of pests in a non-treated section in observation, Tb: the number of pests in a treated-section before treatment, Tai: the number of pests in a treated-section in observation.

Molecules are shown by their SMILES.

With `CCSc1cncnc1-c1nc2cc(C(F)(F)F)cnc2n1C` [Compound 4], the pest or weed control at 500 ppm in the assay with Aphis gossypii and with Bemisia tabaci was not below 90% each time.
Consider `CCS(=O)(=O)c1cncnc1-c1nc2cc(C(F)(F)F)ccc2n1C` [Compound 9], for which the pest or weed control at 500 ppm in the assay with Aphis gossypii and in the assay with Bemisia tabaci was not below 90% throughout.
Consider `CCSc1cncnc1-c1nc2cc(C(F)(F)F)ccc2n1C` [Compound 7, 2-(5-ethylthiopyrimidin-4-yl)-1-methyl-5-trifluoromethyl-1H-benzimidazole], for which the pest or weed control at 500 ppm with Aphis gossypii and in the assay with Bemisia tabaci was not below 90% each time.
Take `CCc1cncnc1-c1nc2cc(C(F)(F)F)ccc2o1` [Compound 10]: the pest or weed control at 500 ppm in the assay with Aphis gossypii and in the assay on Bemisia tabaci was not below 90% throughout.
Take `Cn1c(-c2ccncn2)nc2cc(C(F)(F)F)ccc21` [Compound 2]: the pest or weed control at 500 ppm in the assay with Aphis gossypii and in the assay on Bemisia tabaci was not below 90% each time.
As for `CCS(=O)(=O)c1cncnc1-c1nc2cc(C(F)(F)F)cnc2n1C` [Compound 6], the pest or weed control at 500 ppm in the assay on Aphis gossypii and in the assay on Bemisia tabaci was not below 90% throughout.
As to `Cn1c(-c2ncncc2Cl)nc2cc(C(F)(F)F)cnc21` [Compound 13], the pest or weed control at 500 ppm with Aphis gossypii and in the assay with Bemisia tabaci was not below 90% throughout.
Consider `CC[S+]([O-])c1cncnc1-c1nc2cc(C(F)(F)F)cnc2n1C` (stereo not shown) [Compound 5], for which the pest or weed control at 500 ppm in the assay on Aphis gossypii and in the assay with Bemisia tabaci was not below 90% throughout.
Consider `CC[S+]([O-])c1cncnc1-c1nc2cc(C(F)(F)F)ccc2n1C` (stereo not shown) [Compound 8], for which the pest or weed control at 500 ppm in the assay on Aphis gossypii and in the assay with Bemisia tabaci was not below 90% in each case.
Turning to `Cn1c(-c2ncncc2OCC(F)(F)F)nc2cc(C(F)(F)F)cnc21` [Compound 3], the pest or weed control at 500 ppm with Aphis gossypii and in the assay on Bemisia tabaci was not below 90% each time.
Consider `CCc1cncnc1-c1nc2cc(C(F)(F)F)cnc2o1` [Compound 15], for which the pest or weed control at 500 ppm in the assay with Aphis gossypii and with Bemisia tabaci was not below 90% throughout.
